# In ChEMBL document CHEMBL1201862, “PubChem BioAssay data set” (2004):
#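 Briefly, cells in 96-well plates were exposed to five compound concentrations for 48 h, and endpoints were estimated by linear interpolation. Abbreviation: GI50, concentration required for 50% inhibition of growth.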 Active and inactive are the calls of the source. Cut-off read from the data, not from the text of the source: active = GI50 up to about 1.1 µM and inactive = higher.
# Key:
# Test in all cases: NCI-60 cell line screen, 48 h
# [1] = tested on: COLO 205
# [2] = tested on: SNB-78
# [3] = tested on: HCT-15
# [4] = tested on: MDA-N
# [5] = tested on: Malme-3M
# [6] = tested on: UACC-62
# [7] = tested on: DMS-114
# [8] = tested on: HOP-92
# [9] = tested on: SK-MEL-2
# [10] = tested on: SNB-75
# [11] = tested on: BT-549
# [12] = tested on: OVCAR-8
# [13] = tested on: RPMI-8226
# [14] = tested on: NCI-H522
# [15] = tested on: EKVX
# [16] = tested on: DU-145
# [17] = tested on: Hs-578T
# [18] = tested on: T47D
# [19] = tested on: HCT-116
# [20] = tested on: SR
# [21] = tested on: NCI/ADR-RES
# [22] = tested on: 786-0
# [23] = tested on: NCI-H23
# [24] = tested on: U-251
# [25] = tested on: M14
# [26] = tested on: HT-29
# [27] = tested on: MDA-MB-231
# [28] = tested on: HCC 2998
# [29] = tested on: LOX IMVI
# [30] = tested on: DLD-1
# [31] = tested on: SNB-19
# [32] = tested on: SW-620
# [33] = tested on: XF498
# [34] = tested on: TK-10
# [35] = tested on: OVCAR-5
# [36] = tested on: SF-295
# [37] = tested on: CCRF-CEM
# [38] = tested on: HOP-62
# [39] = tested on: SK-MEL-5
# [40] = tested on: MDA-MB-435
# [41] = tested on: MCF7
# [42] = tested on: RXF 393
# [43] = tested on: UACC-257
# [44] = tested on: SF-539
# [45] = tested on: HOP-18
# [46] = tested on: SK-OV-3
# [47] = tested on: LXFL 529
# [48] = tested on: PC-3
# [49] = tested on: SK-MEL-28
# [50] = tested on: KM12
# [51] = tested on: OVCAR-4
# [52] = tested on: MOLT-4
# [53] = tested on: M19-MEL
# [54] = tested on: NCI-H226
# [55] = tested on: K562
# [56] = tested on: KM-20L2
# [57] = tested on: OVCAR-3
# [58] = tested on: SN12C
# [59] = tested on: NCI-H460
# [60] = tested on: A549
# [61] = tested on: SF-268
# [62] = tested on: UO-31
# [63] = tested on: IGROV-1
# [64] = tested on: HL-60
# [65] = tested on: A498
# [66] = tested on: ACHN
structure (smiles),measurement,setting,value
Cc1cc(NC(=O)NC(=O)c2ccccc2N(C)C)ccc1Oc1ncc(Br)cn1,GI50,[1],780 nM (active)
same,GI50,[2],1050 nM (active)
same,GI50,[3],202 nM
same,GI50,[4],30.2 nM (active)
same,GI50,[5],425 nM (active)
same,GI50,[6],301 nM (active)
same,GI50,[7],219 nM (active)
same,GI50,[8],1300 nM (inactive)
same,GI50,[9],733 nM (active)
same,GI50,[10],135 nM (active)
same,GI50,[11],731 nM (active)
same,GI50,[12],1100 nM (active)
same,GI50,[13],451 nM (active)
same,GI50,[14],210 nM (active)
same,GI50,[15],1960 nM (inactive)
same,GI50,[16],1060 nM (active)
same,GI50,[17],267 nM (active)
same,GI50,[18],1610 nM (inactive)
same,GI50,[19],439 nM (active)
same,GI50,[20],54.1 nM (active)
same,GI50,[21],361 nM (active)
same,GI50,[22],425 nM (active)
same,GI50,[23],1170 nM (inactive)
same,GI50,[24],497 nM (active)
same,GI50,[25],957 nM (active)
same,GI50,[26],305 nM (active)
same,GI50,[27],1450 nM (inactive)
same,GI50,[28],530 nM (active)
same,GI50,[29],369 nM (active)
same,GI50,[30],373 nM (active)
same,GI50,[31],532 nM (active)
same,GI50,[32],301 nM (active)
same,GI50,[33],288 nM (active)
same,GI50,[34],4510 nM (inactive)
same,GI50,[35],8110 nM (inactive)
same,GI50,[36],224 nM (active)
same,GI50,[37],237 nM (active)
same,GI50,[38],659 nM (active)
same,GI50,[39],179 nM (active)
same,GI50,[40],42.4 nM (active)
same,GI50,[41],249 nM (active)
same,GI50,[42],656 nM (active)
same,GI50,[43],410 nM (active)
same,GI50,[44],267 nM (active)
same,GI50,[45],> 100000 nM (inactive)
same,GI50,[46],437 nM (active)
same,GI50,[47],390 nM (active)
same,GI50,[48],333 nM (active)
same,GI50,[49],640 nM (active)
same,GI50,[50],359 nM (active)
same,GI50,[51],6680 nM (inactive)
same,GI50,[52],1080 nM (active)
same,GI50,[53],455 nM (active)
same,GI50,[54],9270 nM (inactive)
same,GI50,[55],119 nM (active)
same,GI50,[56],284 nM (active)
same,GI50,[57],290 nM (active)
same,GI50,[58],1740 nM (inactive)
same,GI50,[59],403 nM (active)
same,GI50,[60],705 nM (active)
same,GI50,[61],977 nM (active)
same,GI50,[62],2040 nM (inactive)
same,GI50,[63],1460 nM (inactive)
same,GI50,[64],73 nM (active)
same,GI50,[65],290 nM (active)
same,GI50,[66],3050 nM (inactive)
